Source: patent US3932664A, “Substituted phenoxyalkyl quaternary ammonium compounds as antiarrhythemic agents” (priority 1974, dated 1976)
Like-named read-outs stand apart in the source and are kept apart here. Values belong to the molecule of their own block, whether it stands above or below them.

Key:
[1] = test system: ouabain-induced ventricular tachycardia in dogs; assay: conversion of ouabain-induced ventricular tachycardia to normal sinus rhythm in anesthetized dogs; type: in vivo, dog; settings: for minimal effective dose: Canis lupus familiaris, iv, read-out: Conversion Dose
Source text: Ventricular tachycardia is produced in dogs in a method similar to the method of Lucchesi and Hardman (J. Pharmacol. Exptl. Therap., 132, 372, 1961) by the administration of ouabain. In such operations, a dog is anesthetized by the intravenous administration of pentobarbital sodium at a dosage rate of 30 milligrams per kilogram. A femoral artery is cannulated with polyethylene tubing for measurements of blood pressure. A femoral vein is similarly cannulated for administration of ouabain and administration of the test compound. Hypodermic needle electrodes are employed for recording electrocardiograms. In such operations, ouabain is administered intravenously by infusion at a constant rate via the cannulated femoral vein. The infusion rate is 35 micrograms of ouabain per kilogram of animal body weight per hour. Within 1 to 1.5 hours following the start of the infusion, a ventricular tachycardia is seen to develop.
After ventricular tachycardia is observed, a test compound is administered intravenously by administration of varying amounts of a composition comprising 50 milligrams of the test compound as a sterile solution in 10 milliliters of water containing 0.9 percent sodium chloride. Each dose is administered slowly over a period of 15 to 30 seconds. The compound is administered at an initial dosage rate of 0.25 milligram of test compound per kilogram of animal body weight. Blood pressure and electrocardiogram are observed for 5 minutes after administration. When a complete conversion from the arrhythmic condition to normal sinus rhythm is not observed within the 5 minute period, a second dose of 0.50 milligram of the test compound per kilogram is administered by a similar procedure and blood pressure and heartbeat are similarly observed for 5 minutes. When complete conversion of the ventricular tachycardia to normal sinus rhythm is not observed, the dosage is increased two-fold every five minutes until complete conversion is obtained. The animal is then observed and the duration of the period of normal cardiac rhythm produced by administration of the test compound is recorded as the duration of antiarrhythmic activity. The termination of the period of normal activity is marked by the reappearance of ventricular tachycardia or fibrillation as indicated by the electrocardiogram observations. The antiarrhythmic dosage of test compound sufficient to bring about a complete conversion of the cuabain-induced tachycardia, and the duration of the period of normal cardiac activity are set out below.
The procedure of Example 26 is repeated, employing the compound of Example 1, [ 2-(4-amino-2,6-dibromophenoxy)-ethyl]-dimethyl(2-methylallyl)ammoniumchloride, as a test compound. In these operations two groups of three dogs each are administered the test compound intravenously at anti-arrhythmic dosage rates of 1 and 2 milligrams per kilogram after ectopic ventricular rhythms have been established by continuous infusion of cuabain.

[2] = blood and heart tissue levels in mice after intravenous and oral administration; type: in vivo; settings: mouse; for concentration at 0.5 h: oral 6 mg/kg, thirty minutes after administration
Procedure: [2-(4-amino-2,6-dibromophenoxy)ethyl]dimethyl-(allyl)ammonium bromide is administered to mice intravenously and orally. The animals are thereafter sacrificed and blood and heart tissue analyses are carried out to ascertain the concentration of test compound present. In such operations mice intravenously administered the test compound at a rate of 6 milligrams per kilogram are found to have blood levels of 27 micrograms of test compound per milliliter 10 seconds after injection, 2.1 micrograms per milliliter 3 minutes after injection. Analysis of heart tissue indicates a concentration of 5.5 micrograms of test compound per gram of tissue 10 minutes after injection. Similar analyses are carried out with animals administered 6 milligrams of test compound per kilogram orally. Thirty minutes after oral administration, blood and heart levels of 1.1 and 5.1 micrograms, respectively, of test compound per milliliter of blood or gram of heart tissue, respectively, are found.

[3] = dog, intravenous, dose giving complete conversion of ouabain-induced tachycardia to normal sinus rhythm
[4] = dog, intravenous, at conversion dose 1 mg/kg
[5] = dog, intravenous, at conversion dose 2 mg/kg
[6] = dog, intravenous, at conversion dose 0.5 mg/kg

SMILES: CCOC(=O)C[N+](C)(C)CCOc1c(Br)cc(N)cc1Br [Example 2, [2-(4-amino-2,6-dibromophenoxy)ethyl]dimethyl(ethylcarboxymethyl) ammonium bromide]
- minimal effective dose [1, 3]: 1 mg/kg
- Duration (period of normal cardiac rhythm) [1, 4]: 2.6 min
- Duration (period of normal cardiac rhythm) [1, 5]: 3.5 min

SMILES: C[N+](C)(CCOc1c(Br)cc(N)cc1Br)Cc1ccccc1Cl.[Cl-] [Example 3, [2-(4-amino-2,6-dibromophenoxy)-ethyl]dimethyl(2-chlorobenzyl)ammonium chloride]
- minimal effective dose [1, 3]: 1 mg/kg
- Duration (period of normal cardiac rhythm) [1, 4]: 12.5 min

SMILES: C#CC[N+](C)(C)CCOc1c(Br)cc(N)cc1Br.[Br-] [Example 4, [2-(4-amino-2,6-dibromo-phenoxy)ethyl]dimethyl(2-propynyl)ammonium bromide]
- minimal effective dose [1, 3]: 0.5 mg/kg
- Duration (period of normal cardiac rhythm) [1, 6]: 24 min

SMILES: CC(=O)C[N+](C)(C)CCOc1c(Br)cc(N)cc1Br.[Cl-] [Example 5, [2-(4-amino-2,6-dibromophenoxy)ethyl]dimethyl(acetonyl)ammonium chloride]
- minimal effective dose [1, 3]: 1 mg/kg
- Duration (period of normal cardiac rhythm) [1, 4]: 11 min

- concentration at 10 s ([2]; blood, intravenous 6 mg/kg, 10 seconds after injection, read-out: blood level): 27000 ng/mL
- concentration at 0.05 h ([2]; blood, intravenous 6 mg/kg, 3 minutes after injection, read-out: blood level): 2100 ng/mL
- concentration at 0.5 h ([2]; blood, read-out: blood level): 1100 ng/mL
- concentration at 10 min ([2]; heart, intravenous 6 mg/kg, 10 minutes after injection): 5500 ng/g
- concentration at 0.5 h ([2]; heart, read-out: heart level): 5100 ng/g
SMILES: C=CC[N+](C)(C)CCOc1c(Br)cc(N)cc1Br.[Br-] [Example 6, [2-(4-amino-2,6-dibromophenoxy)ethyl]dimethyl(allyl)ammonium bromide]
- minimal effective dose [1, 3]: 1 mg/kg
- Duration (period of normal cardiac rhythm) [1, 4]: 6 min

SMILES: C[N+](C)(CCO)CCOc1c(Br)cc(N)cc1Br [Example 7]
- minimal effective dose [1, 3]: 1 mg/kg
- Duration (period of normal cardiac rhythm) [1, 4]: 25 min

SMILES: C[N+](C)(CCOc1c(Br)cc(N)cc1Br)CC(=O)c1ccc(Cl)c(Cl)c1 [Example 8]
- minimal effective dose [1, 3]: 16 mg/kg
- Duration (period of normal cardiac rhythm) ([1]; dog, intravenous, at conversion dose 16 mg/kg): 10 min

SMILES: C[N+](C)(CCOc1c(Br)cc(N)cc1Br)CCc1ccccc1 [Example 9]
- minimal effective dose [1, 3]: 2 mg/kg
- Duration (period of normal cardiac rhythm) [1, 5]: 3.5 min

SMILES: C[N+](C)(CC=CCl)CCOc1c(Br)cc(N)cc1Br [Example 10]
- minimal effective dose [1, 3]: 1 mg/kg
- Duration (period of normal cardiac rhythm) [1, 4]: 3 min

SMILES: C[N+](C)(CCOc1c(Br)cc(N)cc1Br)Cc1ccccc1 [Example 11]
- minimal effective dose [1, 3]: 1 mg/kg
- Duration (period of normal cardiac rhythm) [1, 4]: 8.5 min

SMILES: C[N+](C)(CCOc1c(Br)cc(N)cc1Br)Cc1ccc(Cl)cc1 [Example 12]
- minimal effective dose [1, 3]: 1 mg/kg
- Duration (period of normal cardiac rhythm) [1, 4]: 9.5 min

SMILES: C[N+](C)(CCOc1c(Br)cc(N)cc1Br)Cc1ccc(Cl)cc1Cl [Example 13]
- minimal effective dose [1, 3]: 0.5 mg/kg
- Duration (period of normal cardiac rhythm) [1, 6]: 4 min

SMILES: C[N+](C)(CCOc1c(Br)cc(N)cc1Br)Cc1ccc(Cl)c(Cl)c1 [Example 14]
- minimal effective dose [1, 3]: 2 mg/kg
- Duration (period of normal cardiac rhythm) [1, 5]: 14 min

SMILES: C=C(C)C[N+](C)(C)CCOc1c(Cl)cc(N)cc1Cl.[Cl-] [Example 15, [2-(4-amino-2,6-dichlorophenoxy)ethyl]dimethyl(2-methylallyl)-ammonium chloride]
- minimal effective dose [1, 3]: 0.5 mg/kg
- Duration (period of normal cardiac rhythm) [1, 6]: 4.5 min

SMILES: C=CC[N+](CC)(CC)CCOc1c(Br)cc(N)cc1Br.[Br-] [Example 16, [2-(4-amino-2,6-dibromophenoxy)ethyl]diethyl(allyl)ammonium bromide]
- minimal effective dose [1, 3]: 2 mg/kg
- Duration (period of normal cardiac rhythm) [1, 5]: 6.5 min

SMILES: C=CC[N+](C)(C)CCCOc1c(Br)cc(N)cc1Br.[Br-] [Example 17, [3-(4-amino-2,6-dibromophenoxy)propyl]dimethyl(allyl)ammonium bromide]
- minimal effective dose [1, 3]: 1 mg/kg
- Duration (period of normal cardiac rhythm) [1, 4]: 6 min

SMILES: C[N+](C)(CC#N)CCOc1c(Br)cc(N)cc1Br.O=S(=O)([O-])c1ccccc1 [Example 18, [2-(4-amino-2,6-dibromophenoxy)ethyl]dimethyl(2-nitriloethyl)-ammonium benzenesulfonate]
- minimal effective dose [1]: 1 mg/kg
- Duration (period of normal cardiac rhythm) [1, 4]: 4 min

SMILES: C=CC[N+](C)(C)CCOc1c(Br)cc(N)cc1Br.CS(=O)(=O)[O-] [Example 19, [2-(4-amino-2,6-dibromophenoxy)-ethyl]dimethyl(allyl)ammonium methanesulfonate]
- minimal effective dose [1, 3]: 1 mg/kg
- Duration (period of normal cardiac rhythm) [1, 4]: 17.5 min
- Duration (period of normal cardiac rhythm) [1, 5]: 39.0 min

SMILES: Nc1cc(Br)c(OCC[N+]23CCC(CC2)CC3)c(Br)c1 [Example 20, [2-(4-amino-2,6-dibromophenoxy)ethyl] quinuclidinium bromide]
- minimal effective dose [1]: 0.5 mg/kg
- Duration (period of normal cardiac rhythm) [1, 6]: 1 min

SMILES: Br.C=CC[N+]1(CCOc2c(Br)cc(N)cc2Br)CCCC1.[Br-] [Example 21, 1-[2-(4-amino-2,6dibromophenoxy)ethyl]-1-allyl pyrrolidinium bromide hydrobromide]
- minimal effective dose [1, 3]: 2 mg/kg
- Duration (period of normal cardiac rhythm) [1, 5]: 1.5 min

SMILES: Br.C=CC[N+]1(CCOc2c(Br)cc(N)cc2Br)CCCCC1.[Br-] [Example 22, 1-[2-(4-amino-2,6-dibromophenoxy)ethyl]-1-allyl piperidinium bromide hydrobromide]
- minimal effective dose [1, 3]: 1 mg/kg
- Duration (period of normal cardiac rhythm) [1, 4]: 6.5 min

SMILES: C=CC[N+]1(CCOc2c(Br)cc(N)cc2Br)CCCCCC1 [Example 23, [2-(4-amino-2,6-dibromophenoxy)ethyl]-1-allylhexahydroazepinium bromide]
- minimal effective dose [1, 3]: 0.5 mg/kg
- Duration (period of normal cardiac rhythm) [1, 6]: 3.3 min
- Duration (period of normal cardiac rhythm) [1, 4]: 7.5 min

SMILES: Cc1ccc[n+](CCOc2c(Br)cc(N)cc2Br)c1.[Br-] [Example 24, 1-[2-(4-amino-2,6-dibromo-phenoxy)ethyl]-3-picolinium bromide]
- minimal effective dose [1, 3]: 0.5 mg/kg
- Duration (period of normal cardiac rhythm) [1, 6]: 38 min

SMILES: C=CC[N+](C)(C)CCCCOc1c(Br)cc(N)cc1Br.[Br-] [Example 25, [4-(4-amino-2,6-dibromophenoxy)-butyl]dimethyl(allyl) ammonium bromide]
- minimal effective dose [1, 3]: 2 mg/kg
- Duration (period of normal cardiac rhythm) [1, 5]: 26 min
